Measured values as given in PubChem BioAssay (NCI).
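Abbreviation: GI50, concentration required for 50% inhibition of growth. TGI is the concentration that stops growth completely.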

Legend:
Assay in all cases: inhibition of tumour cell growth, NCI panel, 384-well format
RXF 393 renal = test system: RXF 393 renal
HCC-2998 colon = test system: HCC-2998 colon
NCI-H460 NSCLC = test system: NCI-H460 NSCLC
MDA-MB-468 breast = test system: MDA-MB-468 breast
DU-145 prostate = test system: DU-145 prostate
TK-10 renal = test system: TK-10 renal
HOP-92 NSCLC = test system: HOP-92 NSCLC
RPMI-8226 leukemia = test system: RPMI-8226 leukemia
NCI/ADR-RES ovarian = test system: NCI/ADR-RES ovarian
UO-31 renal = test system: UO-31 renal
CCRF-CEM leukemia = test system: CCRF-CEM leukemia
KM12 colon = test system: KM12 colon
SK-MEL-28 melanoma = test system: SK-MEL-28 melanoma
MCF7 breast = test system: MCF7 breast
SNB-19 CNS = test system: SNB-19 CNS
HCT-15 colon = test system: HCT-15 colon
MDA-MB-231 breast = test system: MDA-MB-231 breast
COLO 205 colon = test system: COLO 205 colon
K-562 leukemia = test system: K-562 leukemia
OVCAR-3 ovarian = test system: OVCAR-3 ovarian
BT-549 breast = test system: BT-549 breast
M14 melanoma = test system: M14 melanoma
HS 578T breast = test system: HS 578T breast
SK-OV-3 ovarian = test system: SK-OV-3 ovarian
NCI-H322M lung = test system: NCI-H322M lung
CAKI-1 renal = test system: CAKI-1 renal
T-47D breast = test system: T-47D breast
NCI-H23 lung = test system: NCI-H23 lung
SF-295 CNS = test system: SF-295 CNS
NCI-H226 lung = test system: NCI-H226 lung
HCT-116 colon = test system: HCT-116 colon
NCI-H522 lung = test system: NCI-H522 lung
SK-MEL-5 melanoma = test system: SK-MEL-5 melanoma
SN12C renal = test system: SN12C renal
SNB-75 CNS = test system: SNB-75 CNS
A498 renal = test system: A498 renal
PC-3 prostate = test system: PC-3 prostate
IGROV1 ovarian = test system: IGROV1 ovarian
MDA-MB-435 melanoma = test system: MDA-MB-435 melanoma
MOLT-4 leukemia = test system: MOLT-4 leukemia
SR leukemia = test system: SR leukemia
UACC-62 melanoma = test system: UACC-62 melanoma
HT29 colon = test system: HT29 colon
SF-539 CNS = test system: SF-539 CNS
ACHN renal = test system: ACHN renal
LOX IMVI melanoma = test system: LOX IMVI melanoma
OVCAR-8 ovarian = test system: OVCAR-8 ovarian
SF-268 CNS = test system: SF-268 CNS
HOP-62 NSCLC = test system: HOP-62 NSCLC
SW-620 colon = test system: SW-620 colon
UACC-257 melanoma = test system: UACC-257 melanoma
U251 glioblastoma = test system: U251 glioblastoma
OVCAR-4 ovarian = test system: OVCAR-4 ovarian
786-0 renal = test system: 786-0 renal
EKVX NSCLC = test system: EKVX NSCLC
A549 NSCLC = test system: A549 NSCLC
MALME-3M melanoma = test system: MALME-3M melanoma
HL-60(TB) leukemia = test system: HL-60(TB) leukemia

Compound: Cc1sc2c(c1C)C(c1ccc(Cl)cc1)=N[C@@H](CC(=O)Nc1ccc(O)cc1)c1nnc(C)n1-2
- GI50 (RXF 393 renal): 740 nM
- TGI (RXF 393 renal): 4390 nM
- GI50 (HCC-2998 colon): 107 nM
- TGI (HCC-2998 colon): 1050 nM
- GI50 (NCI-H460 NSCLC): 337 nM
- TGI (NCI-H460 NSCLC): 14900 nM
- GI50 (MDA-MB-468 breast): 175 nM
- TGI (MDA-MB-468 breast): 1940 nM
- GI50 (DU-145 prostate): 1170 nM
- TGI (DU-145 prostate): 28000 nM
- GI50 (TK-10 renal): 154 nM
- TGI (TK-10 renal): 3700 nM
- GI50 (HOP-92 NSCLC): 156 nM
- TGI (HOP-92 NSCLC): 11500 nM
- GI50 (RPMI-8226 leukemia): 23.1 nM
- TGI (RPMI-8226 leukemia): 153 nM
- GI50 (NCI/ADR-RES ovarian): 1890 nM
- TGI (NCI/ADR-RES ovarian): 8450 nM
- GI50 (UO-31 renal): 632 nM
- TGI (UO-31 renal): 14400 nM
- GI50 (CCRF-CEM leukemia): 106 nM
- TGI (CCRF-CEM leukemia): 8000 nM
- GI50 (KM12 colon): 471 nM
- TGI (KM12 colon): 16400 nM
- GI50 (SK-MEL-28 melanoma): 581 nM
- TGI (SK-MEL-28 melanoma): 15700 nM
- GI50 (MCF7 breast): 54.3 nM
- TGI (MCF7 breast): 12400 nM
- GI50 (SNB-19 CNS): 355 nM
- TGI (SNB-19 CNS): 16700 nM
- GI50 (HCT-15 colon): 247 nM
- TGI (HCT-15 colon): 7330 nM
- GI50 (MDA-MB-231 breast): 81.6 nM
- TGI (MDA-MB-231 breast): 14300 nM
- GI50 (COLO 205 colon): 164 nM
- TGI (COLO 205 colon): 2090 nM
- GI50 (K-562 leukemia): 133 nM
- TGI (K-562 leukemia): 13400 nM
- GI50 (OVCAR-3 ovarian): 66.6 nM
- TGI (OVCAR-3 ovarian): 1910 nM
- GI50 (BT-549 breast): 41.7 nM
- TGI (BT-549 breast): 1780 nM
- GI50 (M14 melanoma): 262 nM
- TGI (M14 melanoma): 12100 nM
- GI50 (HS 578T breast): 37.2 nM
- TGI (HS 578T breast): 355 nM
- GI50 (SK-OV-3 ovarian): 173 nM
- TGI (SK-OV-3 ovarian): 5480 nM
- GI50 (NCI-H322M lung): 219 nM
- TGI (NCI-H322M lung): 14300 nM
- GI50 (CAKI-1 renal): 44.9 nM
- TGI (CAKI-1 renal): 7150 nM
- GI50 (T-47D breast): 252 nM
- TGI (T-47D breast): 15300 nM
- GI50 (NCI-H23 lung): 213 nM
- TGI (NCI-H23 lung): 2860 nM
- GI50 (SF-295 CNS): 803 nM
- TGI (SF-295 CNS): 13100 nM
- GI50 (NCI-H226 lung): 98.3 nM
- TGI (NCI-H226 lung): 8210 nM
- GI50 (HCT-116 colon): 235 nM
- TGI (HCT-116 colon): 12500 nM
- GI50 (NCI-H522 lung): 62.4 nM
- TGI (NCI-H522 lung): 730 nM
- GI50 (SK-MEL-5 melanoma): 304 nM
- TGI (SK-MEL-5 melanoma): 10700 nM
- GI50 (SN12C renal): 420 nM
- TGI (SN12C renal): 13100 nM
- GI50 (SNB-75 CNS): 367 nM
- TGI (SNB-75 CNS): 13700 nM
- GI50 (A498 renal): 380 nM
- TGI (A498 renal): 10400 nM
- GI50 (PC-3 prostate): 228 nM
- TGI (PC-3 prostate): 14600 nM
- GI50 (IGROV1 ovarian): 158 nM
- TGI (IGROV1 ovarian): 4130 nM
- GI50 (MDA-MB-435 melanoma): 1030 nM
- TGI (MDA-MB-435 melanoma): 12600 nM
- GI50 (MOLT-4 leukemia): 61 nM
- TGI (MOLT-4 leukemia): 1280 nM
- GI50 (SR leukemia): 11.7 nM
- TGI (SR leukemia): 58.8 nM
- GI50 (UACC-62 melanoma): 42.2 nM
- TGI (UACC-62 melanoma): 2960 nM
- GI50 (HT29 colon): 104 nM
- TGI (HT29 colon): 2080 nM
- GI50 (SF-539 CNS): 292 nM
- TGI (SF-539 CNS): 12500 nM
- GI50 (ACHN renal): 877 nM
- TGI (ACHN renal): 15600 nM
- GI50 (LOX IMVI melanoma): 108 nM
- TGI (LOX IMVI melanoma): 266 nM
- GI50 (OVCAR-8 ovarian): 118 nM
- TGI (OVCAR-8 ovarian): 1570 nM
- GI50 (SF-268 CNS): 627 nM
- TGI (SF-268 CNS): 12800 nM
- GI50 (HOP-62 NSCLC): 158 nM
- TGI (HOP-62 NSCLC): 3900 nM
- GI50 (SW-620 colon): 1180 nM
- TGI (SW-620 colon): 18500 nM
- GI50 (UACC-257 melanoma): 174 nM
- TGI (UACC-257 melanoma): 16400 nM
- GI50 (U251 glioblastoma): 644 nM
- TGI (U251 glioblastoma): 14600 nM
- GI50 (OVCAR-4 ovarian): 128 nM
- TGI (OVCAR-4 ovarian): 798 nM
- GI50 ([…]-0 renal): 114 nM
- TGI (786-0 renal): 12600 nM
- GI50 (EKVX NSCLC): 3090 nM
- TGI (EKVX NSCLC): 20100 nM
- GI50 (A549 NSCLC): 596 nM
- TGI (A549 NSCLC): 14700 nM
- GI50 (MALME-3M melanoma): 194 nM
- TGI (MALME-3M melanoma): 3600 nM
- GI50 (HL-60(TB) leukemia): 11.4 nM
- TGI (HL-60(TB) leukemia): 44.6 nM
